Source: US20060069132A1, “Azolecarboxamide herbicides” (priority 2004, published 2006)

What was measured:
barnyardgrass [1] = test: Test B pre-/postemergence herbicide test; format: in vivo, Echinochloa crus-galli; settings: for Barnyardgrass plant response rating: postemergence, visual rating, scale 0 (no effect) to 100 (complete control)
How it was run: (§1)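 Visual rating, 0 (no effect) to 100 (complete control), versus untreated controls after 13–15 d in greenhouse. Pre- and postemergence applications (postemergence plants 2–18 cm, 1–4 leaves); flooded paddy arm at 2-leaf stage. Compounds in non-phytotoxic solvent plus surfactant.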

Surinam grass = test: Test B pre-/postemergence herbicide test; format: in vivo, Urochloa decumbens; settings: for Surinam Grass plant response rating: postemergence, visual rating, scale 0 (no effect) to 100 (complete control)
How it was run: (§2)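 Formulation: non-phytotoxic solvent mix with surfactant. Timing: preemergence on seed and postemergence on 2–18 cm plants, applied concurrently. Readout after 13–15 d greenhouse: visual 0–100 control rating against controls.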

cocklebur = test: Test B pre-/postemergence herbicide test; format: in vivo, Xanthium strumarium; settings: for Cocklebur plant response rating: postemergence, visual rating, scale 0 (no effect) to 100 (complete control)
How it was run: as §1

corn = test: Test B pre-/postemergence herbicide test; format: in vivo, Zea mays; settings: for Corn plant response rating: postemergence, visual rating, scale 0 (no effect) to 100 (complete control)
How it was run: as §2

large crabgrass = test: Test B pre-/postemergence herbicide test; format: in vivo, Digitaria sanguinalis; settings: for Crabgrass, Large plant response rating: postemergence, visual rating, scale 0 (no effect) to 100 (complete control)
How it was run: as §2

giant foxtail = test: Test B pre-/postemergence herbicide test; format: in vivo, Setaria faberi; settings: for Foxtail, Giant plant response rating: postemergence, visual rating, scale 0 (no effect) to 100 (complete control)
How it was run: as §2

morningglory = test: Test B pre-/postemergence herbicide test; format: in vivo, Ipomoea coccinea; settings: for Morningglory plant response rating: postemergence, visual rating, scale 0 (no effect) to 100 (complete control)
How it was run: as §1

pigweed = test: Test B pre-/postemergence herbicide test; format: in vivo, Amaranthus retroflexus; settings: for Pigweed plant response rating: postemergence, visual rating, scale 0 (no effect) to 100 (complete control)
How it was run: as §2

velvetleaf = test: Test B pre-/postemergence herbicide test; format: in vivo, Abutilon theophrasti; settings: for Velvetleaf plant response rating: postemergence, visual rating, scale 0 (no effect) to 100 (complete control)
How it was run: as §2

blackgrass = test: Test B postemergence herbicide test; format: in vivo, Alopecurus myosuroides; settings: postemergence, visual rating, scale 0 (no effect) to 100 (complete control)
How it was run: (§3)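 Visual ratings, 0 (no effect) to 100 (complete control), made versus controls after 13–15 d greenhouse. Paddy plants treated at 2-leaf stage; postemergence plants at 1- to 4-leaf stage, 2–18 cm tall.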

wheat = test: Test B postemergence herbicide test; format: in vivo, Triticum aestivum; design: key to Wheat plant response rating: 0 = no effect, 100 = complete control; settings: postemergence, visual rating, scale 0 (no effect) to 100 (complete control)
How it was run: as §3

wild oat = test: Test B postemergence herbicide test; format: in vivo, Avena fatua; settings: postemergence, visual rating, scale 0 (no effect) to 100 (complete control)
How it was run: as §3

rice = test: Test B flooded paddy test; format: in vivo, Oryza sativa; settings: 1000 g ai/ha, visual rating, scale 0 to 100 (0 no effect, 100 complete control), 13 to 15 days
How it was run: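 Scale 0–100: zero equals no visible effect, 100 complete control, judged by eye relative to controls. Timing: 13 to 15 days in greenhouse post-treatment. Growth stage at spraying: two leaves (paddy) or one to four leaves, 2–18 cm (postemergence).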

[2] = tested on: small flower umbrella sedge; test: Test B flooded paddy test; format: in vivo, Cyperus difformis; settings: 1000 g ai/ha, visual rating, scale 0 to 100 (0 no effect, 100 complete control), 13 to 15 days
How it was run: as §3

ducksalad = test: Test B flooded paddy test; format: in vivo, Heteranthera limosa; settings: 1000 g ai/ha, visual rating, scale 0 to 100 (0 no effect, 100 complete control), 13 to 15 days
How it was run: as §3

barnyardgrass [3] = test: Test B flooded paddy test; format: in vivo, Echinochloa crus-galli; settings: 1000 g ai/ha, visual rating, scale 0 to 100 (0 no effect, 100 complete control), 13 to 15 days
How it was run: as §3

[4] = 125 g ai/ha, 0 = no effect, 100 = complete control, preemergence
[5] = 500 g ai/ha, visual rating 0-100, 0 no effect, 100 complete control, preemergence

For `CC(=NO)c1cccc(NC(=O)c2sc(C(C)(C)C)nc2C)c1` [Compound 195], the “Barnyardgrass plant response rating (0 to 100 scale)” value (barnyardgrass [1]; [4]) was 40, the “Plant response rating, Barnyardgrass” value (barnyardgrass [1]; [5]) was 90 and the “Barnyardgrass plant response rating” value (barnyardgrass [1]; 125 g ai/ha) was 40. The “Barnyardgrass plant response rating” value (barnyardgrass [1]; 500 g ai/ha) was 90, the “Surinam Grass plant response rating (0 to 100 scale)” value (Surinam grass; [4]) was 10 and the “Plant response rating, Surinam Grass” value (Surinam grass; [5]) was 30. The “Surinam Grass plant response rating” value (Surinam grass; 125 g ai/ha) was 10, the “Surinam Grass plant response rating” value (Surinam grass; 500 g ai/ha) was 30 and the “Cocklebur plant response rating (0 to 100 scale)” value (cocklebur; [4]) was 0. For the same compound, the “Plant response rating, Cocklebur” value (cocklebur; [5]) was 0, the “Cocklebur plant response rating” value (cocklebur; 125 g ai/ha) was 30 and the “Cocklebur plant response rating” value (cocklebur; 500 g ai/ha) was 60. The “Corn plant response rating (0 to 100 scale)” value (corn; [4]) was 0, the “Plant response rating, Corn” value (corn; [5]) was 0 and the “Corn plant response rating” value (corn; 125 g ai/ha) was 20. The “Corn plant response rating” value (corn; 500 g ai/ha) was 30, the “Crabgrass, Large plant response rating (0 to 100 scale)” value (large crabgrass; [4]) was 80 and the “Plant response rating, Crabgrass, Large” value (large crabgrass; [5]) was 100. The “Crabgrass, Large plant response rating” value (large crabgrass; 125 g ai/ha) was 20, the “Crabgrass, Large plant response rating” value (large crabgrass; 500 g ai/ha) was 50 and the “Foxtail, Giant plant response rating (0 to 100 scale)” value (giant foxtail; [4]) was 20. For the same compound, the “Plant response rating, Foxtail, Giant” value (giant foxtail; [5]) was 60, the “Foxtail, Giant plant response rating” value (giant foxtail; 125 g ai/ha) was 20 and the “Foxtail, Giant plant response rating” value (giant foxtail; 500 g ai/ha) was 20. For the same compound, the “Morningglory plant response rating (0 to 100 scale)” value (morningglory; [4]) was 10, the “Plant response rating, Morningglory” value (morningglory; [5]) was 40 and the “Morningglory plant response rating” value (morningglory; 125 g ai/ha) was 0. For the same compound, the “Morningglory plant response rating” value (morningglory; 500 g ai/ha) was 60, the “Pigweed plant response rating (0 to 100 scale)” value (pigweed; [4]) was 90 and the “Plant response rating, Pigweed” value (pigweed; [5]) was 90. For the same compound, the “Pigweed plant response rating” value (pigweed; 125 g ai/ha) was 70, the “Pigweed plant response rating” value (pigweed; 500 g ai/ha) was 80 and the “Velvetleaf plant response rating (0 to 100 scale)” value (velvetleaf; [4]) was 10. For the same compound, the “Plant response rating, Velvetleaf” value (velvetleaf; [5]) was 20, the “Velvetleaf plant response rating” value (velvetleaf; 125 g ai/ha) was 20 and the “Velvetleaf plant response rating” value (velvetleaf; 500 g ai/ha) was 40. The “Blackgrass plant response rating” value (blackgrass; 125 g ai/ha) was 0, the “Blackgrass plant response rating” value (blackgrass; 500 g ai/ha) was 10 and the “Wheat plant response rating” value (wheat; 125 g ai/ha) was 10. The “Wheat plant response rating” value (wheat; 500 g ai/ha) was 20, the “Oat, Wild plant response rating” value (wild oat; 125 g ai/ha) was 10 and the “Oat, Wild plant response rating” value (wild oat; 500 g ai/ha) was 20. The “Rice plant response rating” value (rice) was 30, the “Sedge, Umbrella plant response rating” value [2] was 50 and the “Ducksalad plant response rating” value (ducksalad) was 40. The “Barnyardgrass plant response rating” value (barnyardgrass [3]) was 60.
